Data published in US11524968B2, “Heterocyclic compound as a protein kinase inhibitor” (HK inno.N Corporation, priority 2017, dated 2022).

Each compound was assayed against JAK1 (Homo sapiens (Human), UniProt P23458) (assay: Analysis of JAK1 activity inhibition ability (ADP-Glo Kinase Assay)). Conditions: JAK1 enzyme, ADP-Glo luminescence, ATP 250 uM, IRS-itide substrate, 30° C. 40 minutes; read-out: IC50.
Assay type: biochemical
Method in brief: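 JAK1 enzyme, IRS-itide substrate (40 ng/mL) and 250 uM ATP, both as prepared in kinase buffer (Tris-HCl pH 7.5, MgCl2, BSA, DTT), reacted with compound 40 min at 30 °C. ADP formed was detected by ADP-Glo luminescence; IC50 is the concentration giving 50% inhibition versus control.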

Chain of JAK1 (P23458 whole entry): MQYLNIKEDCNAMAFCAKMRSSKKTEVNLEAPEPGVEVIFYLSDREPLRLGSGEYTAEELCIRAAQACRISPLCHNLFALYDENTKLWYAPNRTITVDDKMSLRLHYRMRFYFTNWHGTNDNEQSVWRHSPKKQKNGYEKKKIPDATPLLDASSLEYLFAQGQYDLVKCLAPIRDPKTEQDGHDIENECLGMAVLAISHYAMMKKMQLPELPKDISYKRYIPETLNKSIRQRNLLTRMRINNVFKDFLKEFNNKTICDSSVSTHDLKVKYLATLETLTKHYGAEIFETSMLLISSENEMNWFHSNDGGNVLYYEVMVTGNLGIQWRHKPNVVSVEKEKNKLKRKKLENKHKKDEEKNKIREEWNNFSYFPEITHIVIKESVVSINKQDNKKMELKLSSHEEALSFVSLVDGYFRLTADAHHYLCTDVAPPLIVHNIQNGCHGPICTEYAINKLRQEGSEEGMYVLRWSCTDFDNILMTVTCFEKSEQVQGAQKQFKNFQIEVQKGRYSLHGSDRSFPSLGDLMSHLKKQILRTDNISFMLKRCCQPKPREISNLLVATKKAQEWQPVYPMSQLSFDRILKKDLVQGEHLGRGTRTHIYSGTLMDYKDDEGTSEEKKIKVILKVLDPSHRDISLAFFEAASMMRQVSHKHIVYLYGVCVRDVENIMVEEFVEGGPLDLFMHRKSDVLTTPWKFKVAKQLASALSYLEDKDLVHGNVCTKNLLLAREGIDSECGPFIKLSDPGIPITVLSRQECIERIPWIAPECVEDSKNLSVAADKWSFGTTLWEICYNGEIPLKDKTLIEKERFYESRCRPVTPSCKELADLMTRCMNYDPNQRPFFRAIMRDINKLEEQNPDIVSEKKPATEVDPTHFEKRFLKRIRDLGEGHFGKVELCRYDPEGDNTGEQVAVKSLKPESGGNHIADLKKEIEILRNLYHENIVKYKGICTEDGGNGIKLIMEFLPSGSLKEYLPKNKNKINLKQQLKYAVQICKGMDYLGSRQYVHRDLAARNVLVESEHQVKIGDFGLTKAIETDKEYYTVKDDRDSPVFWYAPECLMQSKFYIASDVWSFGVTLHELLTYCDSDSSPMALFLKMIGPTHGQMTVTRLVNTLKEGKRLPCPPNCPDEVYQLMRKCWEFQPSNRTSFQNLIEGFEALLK

`CCCS(=O)(=O)Nc1ccc(-c2nc(NC(=O)C3CC3)nc3[nH]ccc23)cc1` [Example 190, N-(4-(4-(propylsulfonamido)phenyl)-7H-pyrrolo[2,3-d]pyrimidin-2-yl)cyclopropanecarboxamide] and `CCCCS(=O)(=O)Nc1ccc(-c2nc(NC(=O)C3CC3)nc3[nH]ccc23)cc1` [Example 191, N-(4-(4-(butylsulfonamido)phenyl)-7H-pyrrolo[2,3-d]pyrimidin-2-yl)cyclopropanecarboxamide] cannot be ordered by IC50: less than 20 nM for the first, less than 20 nM for the second.

First: O=C(Nc1nc(-c2ccc(NS(=O)(=O)c3cccc(F)c3)cc2)c2cc[nH]c2n1)C1CC1 [Example 192, N-(4-(4-((3-fluorophenyl)sulfonamido)phenyl)-7H-pyrrolo[2,3-d]pyrimidin-2-yl)cyclopropanecarboxamide]
Second: NC(=O)c1ccc(S(=O)(=O)Nc2ccc(-c3nc(NC(=O)C4CC4)nc4[nH]ccc34)cc2)cc1 [Example 200, 4-(N-(4-(2-(cyclopropanecarboxamido)-7H-pyrrolo[2,3-d]pyrimidin-4-yl)phenyl)sulfamoyl)benzamide]
The IC50 of the first is lower: less than 20 nM for the first, greater than 200 nM for the second. The first is the more potent here.

First: CN(c1ccc(-c2nc(NC(=O)C3CC3)nc3[nH]ccc23)cc1)S(=O)(=O)c1ccc(F)c(F)c1 [Example 193, N-(4-(4-((3,4-difluoro-N-methylphenyl)sulfonamido)phenyl)-7H-pyrrolo[2,3-d]pyrimidin-2-yl)cyclopropanecarboxamide]
Second: O=C(Nc1nc(-c2ccc(NS(=O)(=O)c3ccc(F)c(F)c3)c(F)c2)c2cc[nH]c2n1)C1CC1 [Example 205, N-(4-(4-((3,4-difluorophenyl)sulfonamido)-3-fluorophenyl)-7H-pyrrolo[2,3-d]pyrimidin-2-yl)cyclopropanecarboxamide]
The IC50 of the first is higher: greater than 200 nM for the first, 20 to 200 nM for the second. The second is the more potent here.

Going from `O=C(Nc1nc(-c2ccc(NS(=O)(=O)CCC(F)(F)F)cc2)c2cc[nH]c2n1)C1CC1` [Example 194, N-(4-(4-((3,3,3-trifluoropropyl)sulfonamido)phenyl)-7H-pyrrolo[2,3-d]pyrimidin-2-yl)cyclopropanecarboxamide] to `O=C(Nc1nc(-c2ccc(NS(=O)(=O)CCCC(F)(F)F)cc2)c2nc[nH]c2n1)C1CC1` [Example 211, N-(6-(4-((4,4,4-trifluorobutyl)sulfonamido)phenyl)-9H-purin-2-yl)cyclopropanecarboxamide], the IC50 rises from less than 20 nM to greater than 200 nM. The first is the more potent here.

`O=C(Nc1nc(-c2ccc(NS(=O)(=O)C3CCS(=O)(=O)CC3)cc2)c2cc[nH]c2n1)C1CC1` [Example 195, N-(4-(4-((1,1-dioxidotetrahydro-2H-thiopyran)-4-sulfonamido)phenyl)-7H-pyrrolo[2,3-d]pyrimidin-2-yl)cyclopropanecarboxamide] and `O=C(Nc1nc(-c2ccc(NS(=O)(=O)C3CCS(=O)(=O)C3)cc2)c2cc[nH]c2n1)C1CC1` (stereo not shown) [Example 196, N-(4-(4-((1,1-dioxidotetrahydrothiophene)-3-sulfonamido)phenyl)-7H-pyrrolo[2,3-d]pyrimidin-2-yl)cyclopropanecarboxamide] fall in the same range of IC50: 20 to 200 nM for the first, 20 to 200 nM for the second.

`N#Cc1ccc(S(=O)(=O)Nc2ccc(-c3nc(NC(=O)C4CC4)nc4[nH]ccc34)cc2)cn1` [Example 197, N-(4-(4-((6-cyanopyridine)-3-sulfonamido)phenyl)-7H-pyrrolo[2,3-d]pyrimidin-2-yl)cyclopropanecarboxamide] and `Cn1cc(S(=O)(=O)Nc2ccc(-c3nc(NC(=O)C4CC4)nc4[nH]ccc34)cc2)cn1` [Example 199, N-(4-(4-((1-methyl-1H-pyrazole)-4-sulfonamido)phenyl)-7H-pyrrolo[2,3-d]pyrimidin-2-yl)cyclopropanecarboxamide] cannot be ordered by IC50: greater than 200 nM for the first, greater than 200 nM for the second.

`Cn1cncc1S(=O)(=O)Nc1ccc(-c2nc(NC(=O)C3CC3)nc3[nH]ccc23)cc1` [Example 198, N-(4-(4-((1-methyl-1H-imidazole)-5-sulfonamido)phenyl)-7H-pyrrolo[2,3-d]pyrimidin-2-yl)cyclopropanecarboxamide] and `CS(=O)(=O)Nc1ccc(-c2nc(NC(=O)C3CC3)nc3[nH]ccc23)cc1F` [Example 201, N-(4-(3-fluoro-4-(methylsulfonamido)phenyl)-7H-pyrrolo[2,3-d]pyrimidin-2-yl)cyclopropanecarboxamide] cannot be ordered by IC50: greater than 200 nM for the first, greater than 200 nM for the second.

`CCS(=O)(=O)Nc1ccc(-c2nc(NC(=O)C3CC3)nc3[nH]ccc23)cc1F` [Example 202, N-(4-(4-(ethylsulfonamido)-3-fluorophenyl)-7H-pyrrolo[2,3-d]pyrimidin-2-yl)cyclopropanecarboxamide] and `CCCS(=O)(=O)Nc1ccc(-c2nc(NC(=O)C3CC3)nc3[nH]ccc23)cc1F` [Example 206, N-(4-(3-fluoro-4-(propylsulfonamido)phenyl)-7H-pyrrolo[2,3-d]pyrimidin-2-yl)cyclopropanecarboxamide] fall in the same range of IC50: 20 to 200 nM for the first, 20 to 200 nM for the second.

Compared with `O=C(Nc1nc(-c2ccc(NS(=O)(=O)CCCF)c(F)c2)c2cc[nH]c2n1)C1CC1` [Example 203, N-(4-(3-fluoro-4-((3-fluoropropyl)sulfonamido)phenyl)-7H-pyrrolo[2,3-d]pyrimidin-2-yl)cyclopropanecarboxamide], `N#CCCCS(=O)(=O)Nc1ccc(-c2nc(NC(=O)C3CC3)nc3[nH]ccc23)cc1F` [Example 204, N-(4-(4-((3-cyanopropyl)sulfonamido)-3-fluorophenyl)-7H-pyrrolo[2,3-d]pyrimidin-2-yl)cyclopropanecarboxamide] is higher in IC50: less than 20 nM for the first, 20 to 200 nM for the second. The first is the more potent here.

`CCS(=O)(=O)Nc1ccc(-c2cc(NC(=O)C3CC3)nc3[nH]cnc23)cc1` [Example 207, N-(7-(4-(ethylsulfonamido)phenyl)-3H-imidazo[4,5-b]pyridin-5-yl)cyclopropanecarboxamide] and `CCS(=O)(=O)Nc1ccc(-c2nc(NC(=O)C3CC3)nc3[nH]cnc23)cc1` [Example 209, N-(6-(4-(ethylsulfonamido)phenyl)-9H-purin-2-yl)cyclopropanecarboxamide] cannot be ordered by IC50: greater than 200 nM for the first, greater than 200 nM for the second.

`O=C(Nc1nc(-c2ccc(NS(=O)(=O)c3ccc(F)c(F)c3)cc2)c2nc[nH]c2n1)C1CC1` [Example 208, N-(6-(4-((3,4-difluorophenyl)sulfonamido)phenyl)-9H-purin-2-yl)cyclopropanecarboxamide] and `N#CCCCS(=O)(=O)Nc1ccc(-c2nc(NC(=O)C3CC3)nc3[nH]cnc23)cc1` [Example 210, N-(6-(4-((3-cyanopropyl)sulfonamido)phenyl)-9H-purin-2-yl)cyclopropanecarboxamide] cannot be ordered by IC50: greater than 200 nM for the first, greater than 200 nM for the second.

`CCCS(=O)(=O)N1CC=C(c2cc(NC(=O)C3CC3)nc3[nH]ccc23)C1` [Example 212, N-(4-(1-(propylsulfonyl)-2,5-dihydro-1H-pyrrol-3-yl)-1H-pyrrolo[2,3-b]pyridin-6-yl)cyclopropanecarboxamide] and `N#CC1(CS(=O)(=O)N2CC=C(c3cc(NC(=O)C4CC4)nc4[nH]ccc34)C2)CC1` [Example 213, N-(4-(1-(((1-cyanocyclopropyl)methyl)sulfonyl)-2,5-dihydro-1H-pyrrol-3-yl)-1H-pyrrolo[2,3-b]pyridin-6-yl)cyclopropanecarboxamide] cannot be ordered by IC50: greater than 200 nM for the first, greater than 200 nM for the second.

`O=C(Nc1cc(-c2ccc(NS(=O)(=O)N3CCOCC3)cc2)c2cc[nH]c2n1)C1CC1` [Example 214, N-(4-(4-(morpholine-4-sulfonamido)phenyl)-1H-pyrrolo[2,3-b]pyridin-6-yl)cyclopropanecarboxamide] and `O=C(Nc1cc(-c2ccc(NS(=O)(=O)N3CCCC3)cc2)c2cc[nH]c2n1)C1CC1` [Example 218, N-(4-(4-(pyrrolidine-1-sulfonamido)phenyl)-1H-pyrrolo[2,3-b]pyridin-6-yl)cyclopropanecarboxamide] cannot be ordered by IC50: less than 20 nM for the first, less than 20 nM for the second.

First: CCN(C)S(=O)(=O)Nc1ccc(-c2cc(NC(=O)C3CC3)nc3[nH]ccc23)cc1 [Example 215, N-(4-(4-((N-ethyl-N-methylsulfamoyl)amino)phenyl)-1H-pyrrolo[2,3-b]pyridin-6-yl)cyclopropanecarboxamide]
Second: CCN(CC)S(=O)(=O)Nc1ccc(-c2cc(NC(=O)C3CC3)nc3[nH]ccc23)cc1 [Example 216, N-(4-(4-((N,N-diethylsulfamoyl)amino)phenyl)-1H-pyrrolo[2,3-b]pyridin-6-yl)cyclopropanecarboxamide]
The IC50 of the first is lower: less than 20 nM for the first, 20 to 200 nM for the second.

First: CN(C1CC1)S(=O)(=O)Nc1ccc(-c2cc(NC(=O)C3CC3)nc3[nH]ccc23)cc1 [Example 217, N-(4-(4-((N-cyclopropyl-N-methylsulfamoyl)amino)phenyl)-1H-pyrrolo[2,3-b]pyridin-6-yl)cyclopropanecarboxamide]
Second: CC(C)N(C)S(=O)(=O)Nc1ccc(-c2cc(NC(=O)C3CC3)nc3[nH]ccc23)cc1 [Example 222, N-(4-(4-((N-isopropyl-N-methylsulfamoyl)amino)phenyl)-1H-pyrrolo[2,3-b]pyridin-6-yl)cyclopropanecarboxamide]
The IC50 of the first is lower: less than 20 nM for the first, 20 to 200 nM for the second.

First: O=C(Nc1cc(-c2ccc(NS(=O)(=O)N3CCCCC3)cc2)c2cc[nH]c2n1)C1CC1 [Example 219, N-(4-(4-(piperidine-1-sulfonamido)phenyl)-1H-pyrrolo[2,3-b]pyridin-6-yl)cyclopropanecarboxamide]
Second: N#CC1CN(S(=O)(=O)Nc2ccc(-c3cc(NC(=O)C4CC4)nc4[nH]ccc34)cc2)C1 [Example 221, N-(4-(4-((3-cyanoazetidine)-1-sulfonamido)phenyl)-1H-pyrrolo[2,3-b]pyridin-6-yl)cyclopropanecarboxamide]
The IC50 of the first is lower: less than 20 nM for the first, 20 to 200 nM for the second. The first is the more potent here.

`CC1CN(S(=O)(=O)Nc2ccc(-c3cc(NC(=O)C4CC4)nc4[nH]ccc34)cc2)CC(C)O1` (stereo not shown) [Example 220, N-(4-(4-((2,6-dimethylmorpholine)-4-sulfonamido)phenyl)-1H-pyrrolo[2,3-b]pyridin-6-yl)cyclopropanecarboxamide] and `COCCN(C)S(=O)(=O)Nc1ccc(-c2cc(NC(=O)C3CC3)nc3[nH]ccc23)cc1` [Example 223, N-(4-(4-((N-(2-methoxyethyl)-N-methylsulfamoyl)amino)phenyl)-1H-pyrrolo[2,3-b]pyridin-6-yl)cyclopropanecarboxamide] fall in the same range of IC50: 20 to 200 nM for the first, 20 to 200 nM for the second.
